Data on 18 compounds can be found in PubChem BioAssay (NCI).

What all share (assay): NCI-60 cell line screen, 48 h
Assay [1] relates to 786-0 renal.
For assay [2], the system named is A498 renal.
Assay [3] concerns COLO 205 colon.
Assay [4] relates to HT29 colon.
The test system of assay [5] is NCI-H23 lung.
The test system of assay [6] is NCI-H460 lung.
The subject of assay [7] is OVCAR-5 ovarian.
The subject of assay [8] is OVCAR-8 ovarian.
Assay [9] relates to RPMI-8226 leukemia.
Assay [10] relates to RXF 393 renal.
The subject of assay [11] is SF-268 CNS.
Assay [12] has as its system SK-MEL-2 melanoma.
The subject of assay [13] is SK-OV-3 ovarian.
Assay [14] concerns UO-31 renal.
Assay [15] has as its system CAKI-1 renal.
The subject of assay [16] is HCT-116 colon.
The subject of assay [17] is NCI-H226 lung.

Structures are written as SMILES.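 96-well plates; 48 h exposure; 5 concentrations. Endpoints by linear interpolation between flanking doses. Not reached: highest tested concentration assigned. The concentration for full growth arrest is given as TGI.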

Turning to `Cc1ccc(/C=C/C(=O)C(C)C)cc1`, the TGI in [1], in assay [2], in assay [3], in assay [4], in [5] and in [6] was over 100 µM throughout. In addition, the TGI in assay [7] is 53.7 µM; in assay [8], over 100 µM; in assay [9], 72.7 µM; in assay [10] it was over 100 µM; in assay [11], over 100 µM; in assay [12], over 100 µM. Besides, the TGI in [13] and in assay [14] was over 100 µM each time.

With `Nc1ccc2ncc(Nc3ccc(F)cc3)nc2c1`, the TGI in [1], in assay [15], in assay [3], in assay [16], in assay [4] and in [17] was over 100 µM in each case. The TGI in assay [5], in assay [6], in assay [7], in assay [8], in assay [9] and in assay [11] was over 100 µM throughout. Besides, the TGI in assay [14] is over 100 µM.

On to `COc1cc(C(C#N)NNC(=O)Cc2ccccc2)cc(OC)c1OC` (stereo not given), for which the TGI in assay [1], in [15], in assay [3], in assay [16], in [4] and in assay [17] was over 100 µM each time. Moreover, the TGI in [5], in [6], in [7], in assay [8], in assay [9] and in [10] was over 100 µM in each case. The TGI in assay [11], in assay [12], in [13] and in assay [14] was over 100 µM in each case.

On to `COc1cc2c(cc1O)[C@H](C)C(c1ccccc1OC)O2` (stereo not given in full), for which the TGI in assay [1] was 50.5 µM; in [2] it was 56 µM; in assay [15], 69.2 µM; in assay [3], 27 µM; in assay [16] it was 15.4 µM; in [4] it was 61.3 µM. Also, the TGI is 72.3 µM in assay [17]; over 100 µM in assay [5]; 4.2 µM in assay [6]; over 100 µM in assay [7]; 57.8 µM in assay [8]; 13.9 µM in assay [9]. Also, the TGI is 93.6 µM in assay [10], over 100 µM in assay [11], over 100 µM in [13] and 70.2 µM in assay [14].

Regarding `O=C(CSc1nnc(Cc2ccccc2)o1)Nc1ccccc1Cl`, the TGI in [1], in assay [2], in assay [15], in assay [3], in [16] and in [4] was over 100 µM in each case. The TGI in assay [17], in assay [5], in [6], in [7], in assay [8] and in assay [9] was over 100 µM each time. The TGI in assay [11], in assay [12], in [13] and in assay [14] was over 100 µM in each case.

As to `COc1ccc([C@@H]2CC(=O)NCCCNCCCCNCCCN2)cc1`, the TGI in assay [1], in assay [2], in assay [15], in [3], in assay [16] and in assay [4] was over 100 µM in each case. Besides, the TGI in assay [17], in [5], in [6], in [7], in assay [8] and in [9] was over 100 µM throughout. Besides, the TGI in [10], in [11], in [12], in [13] and in assay [14] was over 100 µM each time.

As for `Fc1ccc2c(c1)SC1Oc3ccccc3-c3c1c-2nn3-c1ccccc1` (stereo not given), the TGI in [1], in [2], in assay [3], in assay [16], in assay [4] and in assay [5] was over 100 µM in each case. Moreover, the TGI in assay [6], in assay [7], in [8], in assay [9], in [10] and in [11] was over 100 µM throughout. The TGI in [12], in assay [13] and in [14] was over 100 µM in each case.

Consider `CCOc1ccccc1NC(=O)C(=O)C(C(=O)c1ccc2ccccc2c1)C1OC(=O)c2ccccc21` (stereo not given), for which the TGI in assay [1] came out at 21.1 µM; in assay [2], 30.5 µM; in [15], 36.8 µM; in [3], 29.7 µM; in assay [16] it was 22.3 µM; in assay [4] it was 76.4 µM. Moreover, the TGI came out at 7.06 µM in [17]; 26.2 µM in assay [5]; 52.2 µM in [6]; 46.1 µM in assay [7]; 38.8 µM in assay [8]; 40 µM in assay [9]. Moreover, the TGI in assay [10] stood at 9.05 µM; in assay [11], 53.1 µM; in assay [12], 29.4 µM; in assay [13] it was 52.8 µM; in assay [14], 29.1 µM.

As for `CN/C=C(/c1ccc(OC)cc1)C(O)c1ccc(OC)c(OC)c1` (stereo not given), the TGI in assay [1], in [2], in [3], in [16], in assay [4] and in assay [17] was over 100 µM in each case. Further, the TGI in assay [5], in [6], in assay [7], in assay [8], in [9] and in assay [10] was over 100 µM in each case. The TGI in [12], in assay [13] and in [14] was over 100 µM in each case.

For the compound `c1ccc(CCCC2Sc3cccc4cccc(c34)S2)cc1`, the TGI in assay [1], in [15], in assay [3], in [16], in assay [4] and in assay [17] was over 100 µM throughout. Also, the TGI in [5], in [6], in [7], in assay [8], in assay [9] and in [10] was over 100 µM in each case. Moreover, the TGI in assay [11], in [12], in assay [13] and in assay [14] was over 100 µM in each case.

`Cc1nc2nn(Cc3ccccc3)cc2c(=O)o1`: the TGI in [1], in [2], in assay [3], in assay [16], in [4] and in assay [17] was over 100 µM in each case. Further, the TGI in assay [6], in assay [7], in [8], in [9], in assay [10] and in assay [11] was over 100 µM throughout. The TGI in [12] and in [14] was over 100 µM throughout.

Regarding `CCCCCCCCCCCCC/C=C1\C[C@H](O)COC1=O`, the TGI was found to be 29.5 µM in assay [1]; 33.7 µM in assay [2]; 32.9 µM in assay [15]; 31.2 µM in assay [16]; 30.6 µM in [4]; 32.9 µM in assay [17]. The TGI in assay [5] was 36.4 µM; in [6] it was 33.4 µM; in assay [7], 33.5 µM; in [9], 41 µM; in assay [10] it was 42.6 µM; in assay [11] it was 38 µM. The figures for the TGI in assay [12], in assay [13] and in assay [14] were 31.1 µM, 35.1 µM and 32.6 µM, respectively.

Turning to `COc1ccc(OC)c(/C=C/C(=O)C(C)(C)C)c1`, the TGI in assay [1] turned out to be 36.9 µM; in assay [2], 80 µM; in assay [15] it was 39.1 µM; in assay [3] it was 33.3 µM; in assay [16], 31.8 µM; in assay [4], 64.1 µM. Besides, the TGI is 35.4 µM in assay [17]; 40.4 µM in [5]; over 100 µM in assay [6]; 38 µM in assay [8]; 40.7 µM in [9]; 34.3 µM in [10]. Besides, the TGI in assay [13] came out at 90.4 µM.

For `CCOC(=O)C1(Br)C(c2ccccc2)NC(=O)N(C2OC(COC(=O)c3ccccc3)C(OC(=O)c3ccccc3)C2OC(=O)c2ccccc2)C1(C)Br` (stereo not given), the TGI in assay [1] is over 100 µM; in assay [2], over 100 µM; in [15] it was over 100 µM; in assay [3], over 65.7 µM; in [16], 52.2 µM; in assay [4], over 100 µM. For the same compound, the TGI in assay [5] was over 100 µM; in assay [6] it was over 100 µM; in assay [8], over 100 µM; in assay [9] it was 33.2 µM; in assay [10] it was 31 µM; in [11] it was over 100 µM. For the same compound, the TGI in [12] was over 100 µM; in assay [13], over 100 µM; in [14], over 94.8 µM.

As to `Nc1ccc(C(=O)NN2C(=O)C(Cl)C2c2cc(Br)cc(Br)c2O)cc1` (stereo not given), the TGI was over 100 µM in assay [1]; 64 µM in assay [15]; over 100 µM in [3]; over 100 µM in assay [16]; over 100 µM in [4]; 45.8 µM in [17]. Further, the TGI in assay [5] was 58 µM; in [6], over 100 µM; in [7], over 100 µM; in [8] it was over 100 µM; in [9], over 100 µM; in assay [10], 79.8 µM. The TGI is 41.6 µM in assay [11], over 100 µM in [12], over 100 µM in assay [13] and 22.4 µM in [14].

As to `CC(OC1CC(=O)CC2C(=O)C=CC(=O)C12)c1ccccc1` (stereo not given), the TGI in assay [1] was determined as 26.9 µM; in assay [2], 32 µM; in assay [15] it was 31.9 µM; in assay [3] it was 32 µM; in assay [16], 22.4 µM; in assay [4] it was 33 µM. The TGI in [17] is 36.5 µM; in [5] it was 33.6 µM; in assay [6] it was over 59.4 µM; in assay [7] it was 31.6 µM; in assay [8], 33.2 µM; in [9], 58.5 µM. The TGI is 35.8 µM in assay [10]; 40.9 µM in assay [11]; 34.9 µM in assay [12]; over 56.2 µM in assay [13]; 29.5 µM in assay [14].

For `O=[N+]([O-])c1cc2c(cc1O)[nH]c1cccc([N+](=O)[O-])c12`, the TGI in assay [1], in [15], in assay [3], in assay [16], in assay [4] and in assay [17] was over 100 µM throughout. Further, the TGI in [5], in [6], in [7], in assay [8], in assay [9] and in assay [11] was over 100 µM each time. For the same compound, the TGI in [12] and in assay [14] was over 100 µM in each case.

Take `CC(C)c1cccc(C(C)C)c1NC(=O)C(=O)CC(=O)CC(c1ccccc1)c1c(O)c2ccccc2oc1=O` (stereo not given): the TGI in [1], in [2], in assay [15], in [3], in assay [16] and in assay [4] was over 100 µM throughout. For the same compound, the TGI in assay [5], in assay [6], in assay [7], in assay [8], in assay [9] and in [10] was over 100 µM each time. Further, the TGI in [11], in assay [12], in assay [13] and in assay [14] was over 100 µM throughout.
